From patent US11407738B2 (Achillion Pharmaceuticals, Inc., priority 2015, dated 2022)

Target: Human Factor D (Homo sapiens (Human), UniProt P00746)
Assay: Human Factor D assay
Format: biochemical
Conditions: Factor D inhibition, substrate Z-L-Lys-SBzl
Experimental: Human Factor D (purified from human serum, Complement Technology, Inc.) at 80 nM final concentration is incubated with test compound at various concentrations for 5 min at room temperature in 50 mM Tris, 1M NaCl, pH 7.5. A synthetic substrate Z-L-Lys-SBzl and DTNB (Ellman's reagent) are added to final concentrations of 100 μM each. […] IC50 values are calculated by nonlinear regression of complement Factor D reaction rates as a function of test compound concentration.

Sequence of Human Factor D (P00746 26-253): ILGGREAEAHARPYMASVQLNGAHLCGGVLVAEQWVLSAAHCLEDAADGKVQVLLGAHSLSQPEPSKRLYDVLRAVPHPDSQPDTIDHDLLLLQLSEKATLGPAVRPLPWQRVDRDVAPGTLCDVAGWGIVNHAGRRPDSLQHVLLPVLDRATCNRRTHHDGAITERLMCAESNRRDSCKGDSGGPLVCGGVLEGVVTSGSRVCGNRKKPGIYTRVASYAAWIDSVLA

Compound	IC50 (Table 4) [µM]	IC50 (Table 3) [µM]
Cc1cccc(NC(=O)[C@@H]2CCC(F)CCN2C(=O)Cn2cc(C(N)=O)c3cc(-c4ccc5cccnc5c4)ccc32)n1 (stereo partly drawn) [Compound 602, 1-(2-((2S)-5-Fluoro-2-((6-methylpyridin-2-yl)carbamoyl)azepan-1-yl)-2-oxoethyl)-5-(quinolin-7-yl)-1H-indole-3-carboxamide]	> 10	–
CC[C@@H](C(=O)Nc1cccc(Br)n1)N(C)C(=O)Cn1nc(C(C)=O)c2cc(-c3cnc(C)nc3)ccc21 [Compound 598, (S)-2-(2-(3-Acetyl-5-(2-methylpyrimidin-5-yl)-1H-indazol-1-yl)-N-methylacetamido)-N-(6-bromopyridin-2-yl)butanamide]	1 to 10	–
CC(=O)c1nn(CC(=O)N2C[C@@](F)(CN=[N+]=[N-])C[C@H]2C(=O)Nc2cccc(Br)n2)c2ccc(-c3cnc(C)nc3)cc12 [Compound 547, (2S,4R)-1-(2-(3-Acetyl-5-(2-methylpyrimidin-5-yl)-1H-indazol-1-yl)acetyl)-4-(azidomethyl)-N-(6-bromopyridin-2-yl)-4-fluoropyrrolidine-2-carboxamide]	< 1	–
CC(=O)c1nn(CC(=O)N2C[C@H](F)C[C@H]2C(=O)NC2CCN(c3ccc(C(=O)O)cn3)CC2)c2ccc(-c3cnc(C)nc3)cc12 [Compound 512, 6-(4-((2S,4R)-1-(2-(3-Acetyl-5-(2-methylpyrimidin-5-yl)-1H-indazol-1-yl)acetyl)-4-fluoropyrrolidine-2-carboxamido)piperidin-1-yl)nicotinic Acid]	–	1 to 10
CC(=O)c1nn2c3ccc(cc13)-c1cnc(nc1)NCCCCCCCCC/C=C\c1cc(Cl)c(F)c(c1)CNC(=O)[C@@H]1C[C@@H](F)CN1C(=O)C2 [Compound 518, (5^2S,5^4R,Z)-2^3-acetyl-9^5-chloro-5^4,9^6-difluoro-2^1H-7,21-diaza-2(5,1)-indazola-1(5,2)-pyrimidina-5(1,2)-pyrrolidina-9(1,3)-benzenacyclohenico-saphan-10-ene-4,6-dione]	–	< 1
COC(=O)[C@@H]1C[C@@H](F)CN1C(=O)Cn1nc(C(C)O)c2cc(-c3cnc(C)nc3)ccc21 (stereo partly drawn) [Compound 633, Methyl (2S,4R)-4-fluoro-1-(2-(3-(1-hydroxyethyl)-5-(2-methylpyrimidin-5-yl)-1H-indazol-1-yl)acetyl)pyrrolidine-2-carboxylate]	> 10	–
Cc1cccc(NC(=O)[C@@H]2CC=CCN2C(=O)Cn2cc(C(N)=O)c3cc(-c4cnc5cc(C)nn5c4)ccc32)n1 [Compound 612, (S)-5-(2-Methylpyrazolo[1,5-a]pyrimidin-6-yl)-1-(2-(2-((6-methylpyridin-2-yl)carbamoyl)-3,6-dihydropyridin-1 (2H)-yl)-2-oxoethyl)-1H-indole-3-carboxamide]	> 10	–
Cc1cccc(NC(=O)[C@@H]2CCC(F)CCN2C(=O)Cn2cc(C(N)=O)c3cc(-c4ccc5c(c4)CC5)ccc32)n1 (stereo partly drawn) [Compound 587, 5-(1,2-Dihydrocyclobutabenzen-4-yl)-1-(2-((2S)-5-fluoro-2-(6-methylpyridin-2-ylcarbamoyl)azepan-1-yl)-2-oxoethyl)-1H-indole-3-carboxamide]	> 10	–
CC(=O)c1nn(CC(=O)N2C[C@H](F)C[C@H]2CS(=O)(=O)c2cccc(Br)n2)c2ccc(-c3cnc(C)nc3)cc12 [Compound 603, 2-(3-Acetyl-5-(2-methylpyrimidin-5-yl)-1H-indazol-1-yl)-1-((2S,4R)-2-(((6-bromopyridin-2-yl)sulfonyl)methyl)-4-fluoropyrrolidin-1-yl)ethan-1-one]	> 10	–
CC(=O)c1nn(CC(=O)N2C[C@H](F)C[C@H]2C(=O)Nc2cccc(-c3cc(S(N)(=O)=O)ccc3Cl)c2F)c2ccc(-c3cnc(C)nc3)cc12 [Compound 525, (2S,4R)-1-(2-(3-acetyl-5-(2-methylpyrimidin-5-yl)-1H-indazol-1-yl)acetyl)-N-(2′-chloro-2-fluoro-5′-sulfamoylbiphenyl-3-yl)-4-fluoropyrrolidine-2-carboxamide]	–	< 1
CC(=O)c1nn(CC(=O)N2C[C@H](F)C[C@H]2c2nnc(CCCC(F)(F)F)o2)c2ccc(-c3cnc(C)nc3)cc12 [Compound 583, 2-(3-Acetyl-5-(2-methylpyrimidin-5-yl)-H-indazol-1-yl)-1-((2S,4R)-4-fluoro-2-(5-(4,4,4-trifluorobutyl)-1,3,4-oxadiazol-2-yl)pyrrolidin-1-yl)ethan-1-one]	1 to 10	–
Cc1cccc(NC(=O)[C@@H]2CCC(F)CCN2C(=O)Cn2cc(C(N)=O)c3cc(-c4ccc5c(c4)CCCC5)ccc32)n1 (stereo partly drawn) [Compound 589, 1-(2-((2S)-5-fluoro-2-((6-methylpyridin-2-yl)carbamoyl)azepan-1-yl)-2-oxoethyl)-5-(5,6,7,8-tetrahydronaphthalen-2-yl)-1H-indole-3-carboxamide]	> 10	–
CC(=O)c1nn(CC(=O)N2C[C@H](F)C[C@H]2c2nnc(-c3cccc(Cl)c3F)[nH]2)c2ccc(-c3cnc(C)nc3)cc12 [Compound 571, 2-(3-acetyl-5-(2-methylpyrimidin-5-yl)-1H-indazol-1-yl)-1-((2S,4R)-2-(5-(3-chloro-2-fluorophenyl)-4H-1,2,4-triazol-3-yl)-4-fluoropyrrolidin-1-yl)ethan-1-one]	> 10	–
CO[C@@H]1CO[C@H]2[C@@H]1OC[C@H]2Oc1ncc(-c2ccc3c(c2)c(C(C)=O)cn3CC(=O)N2C[C@H](F)C[C@H]2C(=O)Nc2cccc(Br)n2)cn1 [Compound 508, (2S,4R)-1-(2-(3-Acetyl-5-(2-((3R,3aR,6R,6aR)-6-methoxyhexahydrofuro[3,2-b]furan-3-yloxy)pyrimidin-5-yl)-1H-indol-1-yl)acetyl)-N-(6-bromopyridin-2-yl)-4-fluoropyrrolidine-2-carboxamide]	–	< 1
Cc1ncc(-c2ccc3c(c2)c(C(=O)CP(=O)(O)O)nn3CC(=O)N2C[C@H](F)C[C@H]2C(=O)Nc2cccc(Br)n2)cn1 [Compound 626, (2-(1-(2-((2S,4R)-2-((6-bromopyridin-2-yl)carbamoyl)-4-fluoropyrrolidin-1-yl)-2-oxoethyl)-5-(2-methylpyrimidin-5-yl)-1H-indazol-3-yl)-2-oxoethyl)phosphonic acid]	> 10	–
CC(=O)c1nn(CC(=O)N2CC=CC[C@H]2C(=O)Nc2cccc(C)n2)c2ccc(-c3cnc(C)nc3)cc12 [Compound 569, (S)-1-(2-(3-acetyl-5-(2-methylpyrimidin-5-yl)-1H-indazol-1-yl)acetyl)-N-(6-methylpyridin-2-yl)-1,2,3,6-tetrahydropyridine-2-carboxamide]	> 10	–
CC(=O)c1nn(CC(=O)N2CCC[C@@H](C(=O)NCc3cccc(Br)n3)C2)c2ccc(-c3cnc(C)nc3)cc12 [Compound 642]	> 10	–
Cc1cccc(NC(=O)[C@@H]2CCC(F)CCN2C(=O)Cn2cc(C(N)=O)c3cc(-c4ccc5ccccc5c4)ccc32)n1 (stereo partly drawn) [Compound 594, 1-(2-((2S)-5-Fluoro-2-((6-methylpyridin-2-yl)carbamoyl)azepan-1-yl)-2-oxoethyl)-5-(naphthaalen-2-yl)-1H-indole-3-carboxamide]	> 10	–
CC(=O)c1nn(CC(=O)N2C[C@H](F)C[C@H]2C(=O)Nc2cccc(Br)n2)c2ccc(N3C[C@H]4CCCC[C@H]4C3)cc12 [Compound 621, (2S,4R)-1-(2-(3-acetyl-5-((3aR,7aS)-hexahydro-1H-isoindol-2(3H)-yl)-1H-indazol-1-yl)acetyl)-N-(6-bromopyridin-2-yl)-4-fluoropyrrolidine-2-carboxamide]	< 1	–
CC(=O)c1nn(CC(=O)N2CC=CC[C@H]2C(=O)Nc2cccc(Br)n2)c2ccc(-c3cnc(C)nc3)cc12 [Compound 573, (S)-1-(2-(3-Acetyl-5-(2-methylpyrimidin-5-yl)-1H-indazol-1-yl)acetyl)-N-(6-bromopyridin-2-yl)-1,2,3,6-tetrahydropyridine-2-carboxamide]	< 1	–
Cc1cccc(NC(=O)[C@@H]2CCC(F)CCN2C(=O)Cn2cc(C(N)=O)c3cc(-c4cccc(C#N)c4)ccc32)n1 (stereo partly drawn) [Compound 591, 5-(3-Cyanophenyl)-1-(2-((2S)-5-fluoro-2-(6-methylpyridin-2-ylcarbamoyl)azepan-1-yl)-2-oxoethyl)-1H-indole-3-carboxamide]	> 10	–
CC(=O)c1nn(CC(=O)N2C[C@H](F)C[C@H]2C(=O)Nc2cccc(-c3ccc4c(c3)OC(F)(F)O4)c2F)c2ccc(-c3cnc(C)nc3)cc12 [Compound 528, (2S,4R)-1-(2-(3-Acetyl-5-(2-methylpyrimidin-5-yl)-1H-indazol-1-yl)acetyl)-N-(3-(2,2-difluorobenzo[d][1,3]dioxol-5-yl)-2-fluorophenyl)-4-fluoropyrrolidine-2-carboxamide]	–	< 1
CC(=O)c1nn(CC(=O)N2C[C@H](F)C[C@H]2CC(=O)Nc2cccc(Br)n2)c2ccc(-c3cnc(C)nc3)cc12 [Compound 580, 2-((2R,4R)-1-(2-(3-Acetyl-5-(2-methylpyrimidin-5-yl)-1H-indazol-1-yl)acetyl)-4-fluoropyrrolidin-2-yl)-N-(6-bromopyridin-2-yl)acetamide]	> 10	–
CC(=O)c1nn(CC(=O)N2C[C@H](F)C[C@H]2C(=O)Nc2cccc(-c3ccc4scnc4c3)c2F)c2ccc(-c3cnc4cc(C)nn4c3)cc12 [Compound 639, (2S,4R)-1-(2-(3-acetyl-5-(4-methylpyrazolo[1,5-a]pyrimidin-6-yl)-1H-indazol-1-yl)acetyl)-N-(3-(benzo[d]thiazol-5-yl)-2-fluorophenyl)-4-fluoropyrrolidine-2-carboxamide]	< 1	–
CC(=O)c1nn(CC(=O)N2C[C@H](F)C[C@H]2C(=O)Nc2ccc3c(S(=O)(=O)O)cccc3c2)c2ccc(-c3cnc(C)nc3)cc12 [Compound 511, 6-((2S,4R)-1-(2-(3-Acetyl-5-(2-methylpyrimidin-5-yl)-1H-indazol-1-yl)acetyl)-4-fluoropyrrolidine-2-carboxamido)naphthalene-1-sulfonic Acid]	–	1 to 10
